This note sets out measurements from US20030235872A1, “Assay method” (priority 2002, published 2003).

The test system of data set [1] is vascular SMC membranes (plasma membrane-enriched fraction). Briefly: Biosensor (surface plasmon resonance, BIAcore L1 chip) binding of Aβ to vascular SMC membranes. More on the design: species or system rat; KA1 (equilibrium association constant for high affinity binding component) / KA2 (equilibrium association constant of low-affinity binding component): unit not given here. Particulars: for KA1 (equilibrium association constant for high affinity binding component) / KA2 (equilibrium association constant of low-affinity binding component): competing reaction model; for binding to plasma membrane-enriched fraction from vascular smooth muscle cells: FIG. 6. As for the experimental part: (§1) Vascular SMCs were plated at a density of 10^4 cells/well in a 96-well plate, or at a density of 10^6 cells/75 cm^2 cell culture flask (Nunc, Denmark) in 20 ml culture medium, and grown to 80% confluence, after which the medium was removed and replaced with fresh, serum-free medium with or without […] lovastatin.
(§2) A crude plasma membrane preparation was prepared from vascular SMCs by differential centrifugation (Hubbard et al., 1983). Cells were scraped off 10×75 cm^2 flasks using a cell scraper, and centrifuged in DMEM at 3,000 rpm in a Beckman Coulter Allegra 21R centrifuge at 4° C. for 3 min. The pellet was then washed with phosphate-buffered saline (PBS), added to 10 ml of STM buffer (0.25 M sucrose/5 mM Tris-HCl, pH 7.4/1.0 mM MgCl2), and homogenized on ice using 10 up and down strokes in a 40 ml Dounce-type glass homogenizer with a loose-fitting pestle. The homogenate was centrifuged at 1,100 rpm for 5 min. The supernatant fraction was saved and the pellet rehomogenized in 5 ml of STM buffer. The suspension was again centrifuged, and the first and second supernatant fractions combined, then centrifuged at 40,000 rpm for 2 h (Beckman L8-M Ultracentrifuge, 70 Ti rotor, no brake) and the resulting crude plasma membrane fraction resuspended in 1.0 ml of 0.02 M sodium phosphate buffer, pH 7.4. Total membrane cholesterol was determined using the Amplex Red cholesterol assay kit (Molecular Probes, Eugene, Oreg., USA). The protein content of the membrane preparations was determined using the bicinchoninic acid (BCA) assay using bovine serum albumin as standard.
(§3) Binding experiments were carried out with a BIAcore X analytical system (Biacore, Uppsala, Sweden) using an L1 sensor chip (Biacore), as supplied by the manufacturer. It will be appreciated that other types of biosensor may also be used, preferably provided that the chip surface is such that the bound lipid material is able to retain a bilayer or monolayer structure. The running buffer used for all experiments was 0.02 M sodium phosphate buffer, pH 6.8 (phosphate buffer). The washing solution was 40 mM N-octyl β-D-glucopyranoside. The regeneration solution was 10 mM sodium hydroxide. All solutions were freshly prepared, degassed and filtered through a […] filter. The operating temperature was 25° C.
(§4) The alkyl surface of the L1 chip was cleaned by an injection of 25 μl of non-ionic 40 mM octyl glucoside at a flow rate of 5 μl/min. SUV (100 μl) or vascular SMC membranes (100 μl containing 0.33 mg protein) were then immediately applied to the chip surface at a low rate of 5 μl/min. To remove any multilamellar structures from the synthetic lipid surface, 30 μL of 10 mM sodium hydroxide was injected at a flow rate of […], resulting in a stable baseline corresponding to the successful formation of an immobilized layer of SUVs.
(§5) Peptide solutions were prepared at concentrations ranging from 0.5 to 10 μM. The solutions were injected over the lipid surface at a flow rate of 5 μl/min for 20 min. The peptide solution was then replaced by phosphate buffer and the peptide-membrane complex allowed to dissociate. The removal of the bound peptide and regeneration of the L1 chip surface, without removal of the synthetic lipid or vascular SMC membrane layer, was achieved by an injection of sodium hydroxide (30 μl, 10 mM) at a flow rate of 50 μl/min.
(In SPR one partner is held on a chip, and binding of the other changes the refractive index at the surface.)

The test system of data set [2] is vascular SMC membrane cholesterol. Briefly: Cholesterol and protein content of plasma membrane fraction from lovastatin-treated vascular SMCs. Type of data set: cell-based, rat. The note with it: cells pretreated with lovastatin 72 h; Amplex Red cholesterol assay. As for the experimental part: as §1
as §2, with “The suspension was again centrifuged, and the first and second supernatant fractions combined, then centrifuged at 40,000 rpm for 2 h (Beckman L8-M Ultracentrifuge, 70 Ti rotor, no brake) and the resulting crude plasma membrane fraction resuspended in 1.0 ml of 0.02 M sodium phosphate buffer, pH 7.4.” left out, “standard. […]” for “standard.”

The test system of data set [3] is vascular SMCs. Nature of the data set: Effect of lovastatin pretreatment on Aβ toxicity in vascular SMCs (MTS assay). The note with it: lovastatin pretreatment 72 h. (In general: Formazan colour is commonly taken as a measure of viable cells.)
In data set [4] the test system is vascular SMCs. Nature of the data set: MTS assay of cytotoxicity of Aβ peptides against vascular smooth muscle cells. The class given is cell-based, rat. The note with it: 24 h, FIG. 1; for toxicity against vascular SMCs (MTS assay): peptide 10 μM; for toxicity against vascular SMCs after aging the peptide (MTS assay): peptide aged 5 days, 10 μM. Here is the method: (§6) Aβ 1-42, Aβ 1-40, Aβ 1-28, Aβ 17-42 and Aβ 29-42 were dissolved in dimethyl sulfoxide (DMSO) at a concentration of 2 mM. The peptide solutions were then sonicated (42 kHz) for 5 minutes, and centrifuged at 5,000 rpm for 1 minute at room temperature using a Hermle Z160M bench microfuge. Solubilised peptides were immediately snap-frozen and mixed on a vortex mixer for 15 seconds. The peptides were then diluted into DMEM for cell culture experiments, or in 0.02 M sodium phosphate buffer, pH 6.8 for biosensor experiments, to give a final concentration of 10 μM.
as §1
The F3-(4,5-dimethylthiazol-2-yl)-5-(3-carboxymethoxyphenyl)-2(4-sulfophenyl)-2H-tetrazolium (MTS) reagent solution was added to the culture medium at a concentration of 10% (by volume).
To measure Aβ toxicity against vascular SMCs, cultures of cells were treated with Aβ peptides and analogues (10 μM) and the amount of toxicity determined using the MTS assay (Cory et al., 1991). […] Aging the peptides by incubation for 5 days caused a significant increase in toxicity. Previous studies (e.g., Pike et al., 1991) have shown that the aggregation of the Aβ into fibrils may be important for the generation of toxic species. The present results support this conclusion. […] In general, the amount of Aβ toxicity approximately correlated with the proportion of fibrillar species.

Data set [5] is described as follows: Congo Red assay of amyloid fibrils. Type of data set: physicochemical. Particulars: peptide aged 5 days, 10 μM; FIG. 2. Here is the method: as §6
The concentration of amyloid fibrils was measured using the assay of Klunk et al. (1999). Aβ peptides were mixed with Congo red (CR) in 0.02 M sodium phosphate buffer, pH 6.8. The final concentration of peptide and CR was 10 μM. Solutions of CR alone were also prepared in 0.02 M sodium phosphate buffer, pH 6.8. The mixture was vortexed briefly and then incubated at room temperature for 15 min. The absorbances at 403 and 541 nm were measured using a BioRad SmartSpec 3000 spectrophotometer. Background absorbance values of buffer alone were subtracted from the values obtained from each sample. The concentration of Aβ fibrils in each preparation was then determined using the formula
All preparations were prepared in triplicate, and the assay was conducted independently three times, with similar results being obtained in each experiment.

Data set [6] relates to synthetic lipid mixtures (cholesterol: phospholipid SUV). Briefly: Biosensor (surface plasmon resonance, BIAcore L1 chip) binding of Aβ to synthetic lipid mixtures. Further details: KA1 (equilibrium association constant for high affinity binding component) / KA2 (equilibrium association constant of low-affinity binding component): unit not given here. The note with it: for KA1 (equilibrium association constant for high affinity binding component) / KA2 (equilibrium association constant of low-affinity binding component): competing reaction model; for extent of binding to the synthetic lipid mixture: 10 μM, cholesterol: phospholipid 60:40, compared with Aβ 1-28, FIG. 4. Here is the method:
Small 100 nm unilamellar vesicles (SUV), containing DMPC, DMPG, DMPS and DMPE, and cholesterol, were prepared in 0.02 M phosphate buffer (pH 6.8) by sonication and extraction. Briefly, 1.5 mg of total lipid was dissolved in 1.5 ml of CHCl3: MeOH (3:1, v/v). Aliquots (408 μl) were removed and evaporated under a stream of nitrogen, and the lipids further dried in vacuo overnight. The lipids were then resuspended in 600 μl of 0.02 M sodium phosphate buffer, pH 6.8. The resulting lipid dispersion was sonicated in a bath type sonicator until clear, and then extruded 17 times through 100 nm pore diameter polycarbonate filters using Liposofast apparatus (Avestin, Ottawa, Canada) to obtain 100 nm […]. The mixed lipid vesicles contained 80% (w/w), 60% (w/w), 40% (w/w), 30% (w/w) or 0% (w/w) cholesterol. The remaining lipid comprised a mixture of DMPC: DMPE: DMPS: DMPG in a ratio of 75:20:2.5:2.5 (by weight).
as §3, §4, §5
The amount of binding in response units (RU) was fitted by a simple one-to-one Langmuir reaction model (Morton et al., 1995):
or a competing reaction model (Karlsson and Falt, 1997):
using BIAevaluation 3.0 software (Biacore). The data obtained from five different binding experiments performed at five different concentrations of peptide were fitted globally to obtain the equilibrium association constant (KA). The accuracy of each fit was assessed by calculating a X^2 value for the data (Karlsson and Failt, 1997). A lower X^2 value was taken as an indication of a better fit of the data. […] Scatchard plots were generated using BIAevaluation 3.0 software (Biacore).
As previous studies have shown that Aβ can interact directly with lipid membranes, we examined the possibility that the toxic effects of Aβ were due to a direct interaction with the vascular SMC membrane. To study the binding of Aβ to lipids, biosensor technology was employed.

The mark [7] stands for this setting: membranes from lovastatin-treated vascular SMCs (72 h).
Where [8] appears, read: membranes from untreated vascular SMCs.

Entries after “also recorded” stand apart in the source; their conditions may differ.

`CC[C@H](C)C(=O)O[C@H]1C[C@@H](C)C=C2C=C[C@H](C)[C@H](CC[C@@H]3C[C@@H](O)CC(=O)O3)[C@H]21` [lovastatin, Lovastatin]: in data set [1] (cells pretreated with lovastatin 72 h, unaged Aβ 10 μM, RU20), the “Aβ1-40 and Aβ1-42 binding to plasma membrane fraction of lovastatin-treated cells, relative to that without lovastatin pretreatment” value was “approximately 25%”. In addition, the “cholesterol content of the membrane fraction relative to untreated cells” value in data set [2] is reported as “approximately 55%”. For the same compound, the “effect of lovastatin alone on the ability of vascular SMCs to reduce MTS” value in data set [3] (no Aβ) was “little effect”. Further, the “reduction of the Aβ1-40 and Aβ1-42-induced decrease in MTS reduction in lovastatin-treated cells versus controls” value in data set [3] (then unaged Aβ 10 μM 24 h, FIG. 7) is 25-40%.

As to “Aβ1-28: N-terminal Aβ fragment, residues 1-28”, in data set [4], the “toxicity against vascular SMCs (MTS assay)” value was “less toxic” and the “toxicity against vascular SMCs after aging the peptide (MTS assay)” value was “still toxic; also recorded: significantly less toxic”. Also, the “fibrillar species (Congo red binding assay)” value in data set [5] is listed as “failed to form fibrils; also recorded: formed fewer fibrillar species”.

In the case of “Aβ1-40: β-amyloid protein peptide, residues 1-40, made by manual solid-phase Boc synthesis”, the “toxicity against vascular SMCs (MTS assay)” value in data set [4] is listed as “significant toxicity”. In addition, the “KA1 (equilibrium association constant for high affinity binding component)” value in data set [6] (Cholesterol: PL ratio 30 : 70) was 1.1 × 10^5; in data set [6] (Cholesterol: PL ratio 60 : 40), 4.0 × 10^7; in data set [6] (Cholesterol: PL ratio 80 : 20), 4.8 × 10^7; in data set [1] (setting [7]) it was 4.1 × 10^4; in data set [1] (setting [8]), 8.3 × 10^5. Moreover, the “KA2 (equilibrium association constant of low-affinity binding component)” value is on record as 5.2 × 10^4 in data set [6] (Cholesterol: PL ratio 30 : 70); 1.3 × 10^6 in data set [6] (Cholesterol: PL ratio 60 : 40); 1.0 × 10^7 in data set [6] (Cholesterol: PL ratio 80 : 20); 3.6 × 10^4 in data set [1] (setting [7]); 5.9 × 10^5 in data set [1] (setting [8]). For the same compound, the “total amount of binding to SMC membrane fraction relative to synthetic lipid mixture containing 60% cholesterol and 40% phospholipid” value in data set [1] (peptide 10 μM) is “approximately 10%”. In data set [1] (peptide 10 μM), the “binding to plasma membrane-enriched fraction from vascular smooth muscle cells” value was “bound to the membrane fraction”.

As for “Aβ1-42: β-amyloid protein peptide, residues 1-42, made by manual solid-phase Boc synthesis”, the “toxicity against vascular SMCs (MTS assay)” value in data set [4] is “significant toxicity”. Also, the “toxicity against vascular SMCs after aging the peptide (MTS assay)” value in data set [4] is recorded as “significant increase in cytotoxicity”. Besides, the “KA1 (equilibrium association constant for high affinity binding component)” value in data set [6] (Cholesterol: PL ratio 30 : 70) is given as 1.8 × 10^5; in data set [6] (Cholesterol: PL ratio 80 : 20), 2.7 × 10^8; in data set [1] (setting [7]), 9.3 × 10^4; in data set [1] (setting [8]), 1.8 × 10^6. For the same compound, the “KA2 (equilibrium association constant of low-affinity binding component)” value in data set [6] (Cholesterol: PL ratio 30 : 70) was 6.9 × 10^4; in data set [6] (Cholesterol: PL ratio 60 : 40), 4.8 × 10^7; in data set [6] (Cholesterol: PL ratio 80 : 20), 6.9 × 10^7; in data set [1] (setting [7]), 5.3 × 10^4; in data set [1] (setting [8]), 9.6 × 10^5. Moreover, in data set [1] (peptide 10 μM), the “binding to plasma membrane-enriched fraction from vascular smooth muscle cells” value is listed as “bound to the membrane fraction”.

In the case of “Aβ17-42: C-terminal Aβ fragment, residues 17-42 (LVFFAEDVGSNKGAIIGLMVGGVVIA; Amyloid-beta protein 42; UniProt P05067 688-713, looked up, fragment)”, the “toxicity against vascular SMCs (MTS assay)” value in data set [4] was “significant toxicity”. In addition, the “extent of binding to the synthetic lipid mixture” value in data set [6] is reported as “bound more strongly”.

On to “Aβ29-42: C-terminal Aβ fragment, residues 29-42 (GAIIGLMVGGVVIA; Amyloid-beta protein 42; UniProt P05067 700-713, looked up, fragment)”, for which the “toxicity against vascular SMCs (MTS assay)” value in data set [4] was “significant toxicity”. In addition, in data set [6], the “extent of binding to the synthetic lipid mixture” value is listed as “bound more strongly”.
